Read-outs that look alike come from different tables or passages of the source.
Experiments:
[1] = system: anti-GA specific IgG antibodies; conditions: for average anti-GA IgG response (Screening RA %): GA treatment group, 40 mg sc three times a week, 1/500 dilution
Protocol: The screening results of the 1/500 dilution are presented as RA %.
Analysis was performed using ELISA.
Each plate should include the following samples: • System suitability Test (SST)—wells coated with purified human IgG. • SST Blank—wells coated with the blocking buffer only (w/o hIgG and human serum sample). […] To be subtracted from the NHS & PHS controls and from the human tested serum samples. • Sample 1-Sample 13—different tested serum samples. Each sample applied in two dilutions ( 1/500 and 1/1000)
All tested human serum samples of different time points from the same individual should be tested (in triplicates), if possible, in the same plate to allow comparison.
Prepare a 1.0 ug/ml dilution of hIgG coating antibody and coat the plate at 100 ul/well.
For washing, empty plate and tap out residual liquid, fill each well with 300 ul washing buffer and then invert plate to empty, tap out residual liquid onto paper towel.
For blocking, add 300 ul/well of blocking buffer to each well, seal the plate and incubate at room temperature for 1 hour, and wash the plates three times.
For sample loading, add 100 ul diluted test samples and/or control sample and/or sample buffer to each well. Seal the plate and incubate for 2 hours at room temperature, empty plate, tap out residual liquid and wash three times.
For detection antibody, prepare 1:4000 dilution of the biotinylated anti-hIgG detection antibody by diluting 2.5 ul biotinylated anti-hIgG antibody to 10 ml of blocking buffer. Prepare 10 ml biotinylated anti-human IgG detection antibody solution per plate and add 100 ul of the prepared detection antibodies to each well. Seal the plate and incubate for 1 hour at room temperature. Then empty plate, tap out residual liquid and wash five times.
For streptavidin conjugated horseradish peroxidase (HRP), prepare working dilution of the streptavidin conjugated HRP in blocking buffer. Then add 100 ul/well of the prepared streptavidin conjugated HRP solution, following shaking the plate for a few seconds. Then incubate the plate for 1 hour at room temperature in the dark, following washing five times.
For enzymatic reaction, TMB (3,3,5,5-tetramethylbenzidine peroxidase) is used. Mix equal volumes of TMB Peroxidase Substrate (Part 1) and Peroxidase Substrate Solution B in a clean glass container immediately prior to use. Dispense 100 ul of TMB solution into each well and incubate the plate for 15-30 minutes in the dark at 37° C. Stop the reaction with 100 ul stop solution per well (1N sulphuric acid) and shake the plate for a few seconds. Read the absorbance (ABS) of each well at 450 nm.
For blank subtraction, subtract the calculated average absorbance (ABS) of SST blank from average (AVG) ABS value of the SST. Subtract the calculated AVG ABS of blank from AVG ABS value of each test sample including PHS and NHS control samples. All data points that fall below 0.000 are set equal to 0.000.
To overcome plate-to-plate variability, the results are normalized by dividing the absorbance (ABS) of each test sample (including the controls) with that of the SST. This value is the Relative Absorbance (RA) ratio and is multiplied by 100 expressed in percent. These values are the reported response values of the test. The RA value is calculated according to the following equation: […]
The RA values of the normal human serum samples obtained from untreated individuals are used to calculate a cut-point value of the test. The cut-point value is used to distinguish between negative and positive human serum samples. In case that the calculated cut point value of the study is lower than the RA of the detection limit (2*Blank) of the study, the cut point is calculated as follows: […]
The results of the other dilution ( 1/1000) will be reported for monitoring, to allow semi quantitative comparison of the tested serum defined as positive.
All samples of each patient were tested on the same plate, whenever it was possible.

anti-GA IgG antibodies = system: anti-GA IgG antibodies
Protocol: Sample positivity of each screen positive sample of each patient was confirmed in further testing by comparison to the confirmatory cut-point.
Unspiked and spiked samples were tested according to the method but only in 1/500 dilution.
The confirmatory cut-point factor is calculated to set the false positive rate at 1%. Reported value (RV) were the unspiked sample avg. ODA and the spiked sample avg. OD. RV were obtained from 50 naïve individuals, each measured 4 times over 2 days by 2 analysts.
Percent RA inhibition was calculated according to the following equation:
Percent inhibition=100×(1−(RA of spiked)/(RA of unspiked))

## L-glutamic acid polymer with L-alanine, L-lysine and L-tyrosine, acetate (salt) [GA]
[1]; Baseline visit, RA % vs cut-point 1.4, one line per patient
  Sample Positivity: Negative
[1]; Baseline, cut-point RA % of 1.4, individual patient
  Sample Positivity: Negative
[1]; Baseline
  average anti-GA IgG response (Screening RA %): 0.4568 RA %
[1]; Month 1
  average anti-GA IgG response (Screening RA %): 34.75 RA %
[1]; Month 3
  average anti-GA IgG response (Screening RA %): 67.72 RA %
[1]; Month 6
  average anti-GA IgG response (Screening RA %): 39.69 RA %
[1]; Month 9
  average anti-GA IgG response (Screening RA %): 30.61 RA %
[1]; Month 12
  average anti-GA IgG response (Screening RA %): 28.94 RA %
[1]; Month 18
  average anti-GA IgG response (Screening RA %): 24.9 RA %
[1]; Month 24
  average anti-GA IgG response (Screening RA %): 23.36 RA %
[1]; Month 1, RA % vs cut-point 1.4, one line per patient
  Sample Positivity: POSITIVE
[1]; Month 2 (so in the source), RA % vs cut-point 1.4, patient 537414
  Sample Positivity: POSITIVE
[1]; Month 3, RA % vs cut-point 1.4, one line per patient
  Sample Positivity: POSITIVE
[1]; Month 3, cut-point RA % of 1.4, individual patient
  Sample Positivity: POSITIVE
[1]; Month 6, RA % vs cut-point 1.4, one line per patient
  Sample Positivity: POSITIVE
[1]; Month 6, cut-point RA % of 1.4, individual patient
  Sample Positivity: POSITIVE
[1]; Month 12, RA % vs cut-point 1.4, one line per patient
  Sample Positivity: POSITIVE
[1]; about 12 months after the initial 40 mg/ml dose
  antibody level versus baseline: higher than baseline
[1]; by month 6 of the treatment
  total anti-GA IgG levels: decreased
[1]; first month compared to after the first month to the third month
  rate of increase of antibody level: greater rate during the first month
[1]; human, in vivo
  non-baseline samples higher than the cut-point value (RA % of 1.4): 96.2%
[1]; month 24
  antibody level after the peak versus baseline: did not reach the baseline level
anti-GA IgG antibodies; Baseline visit; one line per patient
  Inhibition (%): 68.2%
anti-GA IgG antibodies; Baseline; confirmation test, spiking with GA; each line one patient
  Inhibition (%): 65.5%
anti-GA IgG antibodies; Month 1; confirmation test
  Inhibition (%): 63.8%
anti-GA IgG antibodies; Month 1; individual patient
  Confirmed Positivity (Yes/No): YES
anti-GA IgG antibodies; Month 1 visit, individual patient
  Inhibition (%): 18.7%
anti-GA IgG antibodies; Month 1 visit; individual patient
  Inhibition (%): 63.2%
anti-GA IgG antibodies; Month 3; individual patient
  Confirmed Positivity (Yes/No): YES
anti-GA IgG antibodies; Month 3 visit, individual patient
  Inhibition (%): 47.0%
anti-GA IgG antibodies; Month 6; confirmation test
  Inhibition (%): 61.1%
anti-GA IgG antibodies; Month 6; individual patient
  Confirmed Positivity (Yes/No): YES
anti-GA IgG antibodies; Month 6 visit, individual patient
  Confirmed Positivity (Yes/No): YES
anti-GA IgG antibodies; Month 9; confirmation test
  Inhibition (%): 56.8%
anti-GA IgG antibodies; Month 9; individual patient
  Confirmed Positivity (Yes/No): YES
anti-GA IgG antibodies; Month 9 visit, individual patient
  Confirmed Positivity (Yes/No): YES
anti-GA IgG antibodies; Month 12; confirmation test
  Inhibition (%): 58.5%
anti-GA IgG antibodies; Month 12; individual patient
  Confirmed Positivity (Yes/No): YES
anti-GA IgG antibodies; Month 12 visit, individual patient
  Confirmed Positivity (Yes/No): YES
anti-GA IgG antibodies; Month 18; confirmation test
  Inhibition (%): 60.2%
anti-GA IgG antibodies; Month 18; individual patient
  Confirmed Positivity (Yes/No): YES
anti-GA IgG antibodies; Month 18 visit, individual patient
  Confirmed Positivity (Yes/No): YES
anti-GA IgG antibodies; Month 24; confirmation test
  Inhibition (%): 66.8%
anti-GA IgG antibodies; Month 24; confirmation test; individual patient
  Inhibition (%): 66.7%
anti-GA IgG antibodies; Month 24; individual patient
  Confirmed Positivity (Yes/No): YES
anti-GA IgG antibodies; Month 24 visit, individual patient
  Confirmed Positivity (Yes/No): YES
anti-GA IgG antibodies; confirmation test, individual patient, Month 1
  Inhibition (%): 63.3%
anti-GA IgG antibodies; confirmation test, individual patient, Month 18
  Inhibition (%): 59.5%
anti-GA IgG antibodies; confirmation test, individual patient, Month 24
  Inhibition (%): 58.2%
anti-GA IgG antibodies; every tested patient (262 patients)
  presence of anti-GA IgG Abs in tested patients: confirmed positive
anti-GA IgG antibodies; screen positive non-baseline samples; confirmatory cut-point […]
  positivity of non-baseline samples verified in the confirmatory test: 99.9%
